In ChEMBL document CHEMBL5244229, “Thiazole-containing compounds as therapeutic targets for cancer therapy” (Eur J Med Chem, 2020):
Converted amounts (≈) assume the structure as drawn. One block for each molecule: values may come before it.

Columns and labels:
[1] = test system: Panel NCI-60 (60 carcinoma cell lines); assay: Antitumor activity against human Panel NCI-60 (60 carcinoma cell lines) cells; type: functional
[2] = biological target: Vascular endothelial growth factor receptor 2 (Homo sapiens) (UniProt P35968); assay: Inhibition of VEGFR2 (unknown origin) at 20 uM using 5-FAM-KKKKEEIYFFF-CONH2 as substrate incubated for 1 hr in presence of ATP by kinase glo-assay relative to control
[3] = test system: MDA-MB-231; assay: Cytotoxicity against human MDA-MB-231 cells assessed as inhibition of cell growth incubated for 48 hrs by MTT assay; type: functional, cell-based; settings: MDA-MB-231, 48 h
[4] = test system: HepG2; assay: Cytotoxicity against human HepG2 cells assessed as inhibition of cell growth incubated for 48 hrs by MTT assay; type: functional, cell-based; settings: HepG2, 48 h
[5] = test system: MCF7; assay: Anticancer activity against human MCF7 cells; type: functional, cell-based
[6] = test system: A549; assay: Anticancer activity against human A549 cells; type: functional, cell-based
[7] = test system: T47D; assay: Cytotoxicity against human T47D cells; type: functional, cell-based
[8] = test system: Enterobacter cloacae; assay: Inhibition of Enterobacter cloacae Metallo-beta-lactamase IMP-1
[9] = test system: MDA-MB-435; assay: Cytotoxicity against human MDA-MB-435 cells; type: functional, cell-based
[10] = test system: HL-60; assay: Cytotoxicity against human HL-60 cells; type: functional, cell-based
[11] = test system: SF-295; assay: Cytotoxicity against human SF-295 cells; type: functional, cell-based
[12] = test system: MCF7; assay: Cytotoxicity against human MCF7 cells assessed as reduction in cell viability by MTS assay; type: functional
[13] = test system: NCI-H460; assay: Cytotoxicity against human NCI-H460 cells assessed as reduction in cell viability by MTS assay; type: functional
[14] = test system: SF-268; assay: Cytotoxicity against human SF-268 cells assessed as reduction in cell viability by MTS assay; type: functional
[15] = Antiproliferative activity against human A375P cells; type: functional, cell-based
[16] = test system: NCI-H460; assay: Antitumor activity against human NCI-H460 cells; type: functional, cell-based
[17] = test system: Panel NCI-60 (60 carcinoma cell lines); assay: Antiproliferative activity against human Panel NCI-60 (60 carcinoma cell lines) assessed as cell growth inhibition; type: functional
[18] = test system: HepG2; assay: Cytotoxicity against human HepG2 cells assessed as reduction in cell viability measured after 48 hrs by MTS assay; type: functional, cell-based; settings: HepG2, 48 h
[19] = test system: HepG2; assay: Anticancer activity against human HepG2 cells; type: functional, cell-based
[20] = test system: HepG2; assay: Cytotoxicity against human HepG2 cells; type: functional, cell-based
[21] = test system: HCT-116; assay: Anticancer activity against human HCT-116 cells; type: functional, cell-based
[22] = test system: PC-3; assay: Anticancer activity against human PC-3 cells; type: functional, cell-based
[23] = test system: K562; assay: Anticancer activity against human K562 cells; type: functional, cell-based
[24] = test system: SMMC-7721; assay: Cytotoxicity against human SMMC-7721 cells; type: functional, cell-based
[25] = test system: MCF7; assay: Cytotoxicity against human MCF7 cells; type: functional, cell-based
[26] = test system: MG-63; assay: Cytotoxicity against human MG-63 cells; type: functional, cell-based
[27] = test system: HeLa; assay: Cytotoxicity against human HeLa cells; type: functional, cell-based
[28] = test system: NCI-H460; assay: Cytotoxicity against human NCI-H460 cells; type: functional, cell-based
[29] = test system: A549; assay: Antiproliferative activity against human A549 cells; type: functional, cell-based
[30] = test system: HT-29; assay: Cytotoxicity against human HT-29 cells; type: functional, cell-based
[31] = test system: MKN-45; assay: Cytotoxicity against human MKN-45 cells; type: functional, cell-based
[32] = Cytotoxicity against human U-87 MG cells; type: functional, cell-based, U-87MG ATCC
[33] = test system: Jurkat; assay: Antiproliferative activity against human Jurkat cells assessed as reduction in cell viability incubated for 2 days by MTT assay; type: functional, cell-based; settings: 48 h
[34] = test system: MDA-MB-231; assay: Antiproliferative activity against human MDA-MB-231 cells assessed as reduction in cell viability incubated for 2 days by MTT assay; type: functional, cell-based; settings: MDA-MB-231, 48 h
[35] = test system: HepG2; assay: Antitumor activity against human HepG2 cells; type: functional, cell-based
[36] = Anticancer activity against human PBMC cells; type: functional, cell-based
[37] = test system: HeLa; assay: Antiproliferative activity against human HeLa cells assessed as reduction in cell growth after 72 hrs; type: functional, cell-based

Vascular endothelial growth factor receptor 2 (Homo sapiens), sequence (P35968 whole entry): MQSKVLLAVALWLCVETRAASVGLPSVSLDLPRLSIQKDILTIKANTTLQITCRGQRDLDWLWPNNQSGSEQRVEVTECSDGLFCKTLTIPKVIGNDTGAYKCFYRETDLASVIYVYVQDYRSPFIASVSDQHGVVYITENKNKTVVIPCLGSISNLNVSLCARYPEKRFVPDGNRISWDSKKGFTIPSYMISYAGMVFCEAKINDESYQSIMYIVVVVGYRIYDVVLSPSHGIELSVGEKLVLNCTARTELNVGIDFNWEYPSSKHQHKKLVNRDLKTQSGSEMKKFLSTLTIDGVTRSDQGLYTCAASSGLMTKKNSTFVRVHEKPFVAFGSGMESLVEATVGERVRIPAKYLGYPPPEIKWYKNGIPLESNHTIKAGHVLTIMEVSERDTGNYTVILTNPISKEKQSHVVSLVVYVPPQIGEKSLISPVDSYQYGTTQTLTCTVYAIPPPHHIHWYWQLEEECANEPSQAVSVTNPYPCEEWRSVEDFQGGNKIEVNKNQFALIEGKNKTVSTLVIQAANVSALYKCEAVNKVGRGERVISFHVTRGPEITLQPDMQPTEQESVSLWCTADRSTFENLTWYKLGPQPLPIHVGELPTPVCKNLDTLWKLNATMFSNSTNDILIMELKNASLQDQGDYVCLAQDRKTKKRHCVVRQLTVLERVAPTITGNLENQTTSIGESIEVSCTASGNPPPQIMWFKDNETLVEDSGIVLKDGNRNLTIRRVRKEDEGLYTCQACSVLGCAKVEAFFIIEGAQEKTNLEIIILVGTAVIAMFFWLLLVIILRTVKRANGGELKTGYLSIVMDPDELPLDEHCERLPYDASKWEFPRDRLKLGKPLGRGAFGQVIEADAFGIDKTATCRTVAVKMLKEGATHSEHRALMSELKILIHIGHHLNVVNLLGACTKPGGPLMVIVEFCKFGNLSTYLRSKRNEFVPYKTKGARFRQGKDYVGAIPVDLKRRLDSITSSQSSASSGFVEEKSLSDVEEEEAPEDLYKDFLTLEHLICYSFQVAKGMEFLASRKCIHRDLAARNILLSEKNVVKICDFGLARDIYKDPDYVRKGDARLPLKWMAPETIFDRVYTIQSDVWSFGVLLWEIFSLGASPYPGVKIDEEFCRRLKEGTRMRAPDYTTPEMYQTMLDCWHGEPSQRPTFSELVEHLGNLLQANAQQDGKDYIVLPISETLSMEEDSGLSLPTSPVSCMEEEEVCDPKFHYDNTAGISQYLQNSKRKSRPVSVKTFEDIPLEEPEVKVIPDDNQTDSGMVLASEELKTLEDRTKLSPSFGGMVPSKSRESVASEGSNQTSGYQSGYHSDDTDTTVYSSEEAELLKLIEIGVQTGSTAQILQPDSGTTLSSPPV

Compound: Clc1nccc2c(-c3csc(-c4c[nH]c5ccc(Br)cc45)n3)c[nH]c12
GI50 [1]: 0.93 µM

inhibition [2]: 5.72%
Compound: COc1ccc(CN2CCN(c3ccc(NC(=O)Cc4csc5nc(-c6ccc(Cl)cc6)cn45)cn3)CC2)cc1
IC50 [3]: 1.4 µM
IC50 [4]: 22.6 µM

IC50 [5]: 5 µM
IC50 [6]: 5 µM
Compound: O=C(NNc1nc(-c2ccc(Cl)cc2)cs1)N1N=C(c2ccccc2)CC1c1ccccc1 (stereo not drawn)

Compound: Cc1ccc(Oc2ccc(-c3csc(N)n3)cc2)cc1
IC50 [7]: 0.54 µM

IC [8]: 0.52 µM
Compound: C[C@@]1(O)[C@@H](COP(=O)(O)OP(=O)(O)OC[C@H]2O[C@@H](c3nc(C(N)=O)cs3)[C@H](O)[C@@H]2O)O[C@@H](n2cnc3c(N)ncnc32)[C@@H]1O

IC50 [5]: 5 µM
IC50 [6]: 5 µM
Compound: O=C(NNc1nc(-c2ccc3ccccc3c2)cs1)N1N=C(c2ccccc2)CC1c1ccc(Cl)cc1 (stereo not drawn)

Compound: O=c1c2c[nH]c3ccc(Br)cc3c-2nn1-c1nc2ccccc2s1
IC50 [9]: < 5 µg/mL
IC50 [10]: < 5 µg/mL
IC50 [11]: < 5 µg/mL

Compound: C/C(=N\N=c1/scc(-c2ccc(Cl)cc2)n1-c1ccccc1)C1CC[C@@]2(C)[C@]3(C)CC=C4C[C@@H](O)CC[C@]4(C)[C@@]3(C)CC[C@]12C (stereo partly drawn)
GI50 [12]: 0.2 µM
GI50 [13]: 0.2 µM
GI50 [14]: 0.8 µM

Compound: CNC(=O)c1cc(Oc2ccc(NC(=O)Nc3ccc(Cl)c(C(F)(F)F)c3)cc2)ccn1 [SORAFENIB]
IC50 [4]: 5.2 µM
IC50 [15]: 5.6 µM

IC50 [16]: 1.3 µM
Compound: CCn1c(=O)/c(=C2\Sc3ccccc3N2C)s/c1=C\c1cccc[n+]1CC

Compound: Cn1cc(-c2nc(-c3c[nH]c4ccccc34)cs2)c2cccnc21
GI50 [17]: 0.04 µM

Compound: COc1cccc2c1C(=O)c1c(O)c3c(c(O)c1C2=O)C[C@@](O)(C(=O)CO)C[C@@H]3O[C@H]1C[C@H](N)[C@H](O)[C@H](C)O1 [DOXORUBICIN]
IC50 [18]: 0.72 µM
IC50 [19]: 11.6 µM
CC50 [20]: 0.2 µM
IC50 [21]: 0.18 µM
IC50 [22]: 0.912 µM
IC50 [23]: 2.3 µM
IC50 [24]: 0.23 µM

Compound: Cn1c(-c2csc(-c3c[nH]c4ncccc34)n2)cc2cc(Br)cnc21
GI50 [1]: 0.81 µM

Compound: O=S1(=O)NCCN1CCNc1nccc(-c2c(-c3ccc(F)cc3)nc3sccn23)n1
IC50 [15]: 1.9 µM

Compound: Cn1cc(-c2csc(-c3cn(C)c4ncccc34)n2)c2ccccc21
GI50 [17]: 0.03 µM

Compound: CC(=O)Nc1nc2ccc(NC(=O)Cc3c[nH]c4ccccc34)cc2s1
IC50 [25]: 48 µM
IC50 [26]: 48 µM
IC50 [27]: 48 µM

IC50 [29]: 0.25 µM
Compound: CC(=O)C(C(C)=O)=C1SC=C(n2c(CC#N)nc3ccccc32)N1c1ccccc1
IC50 [28]: 0.25 µM
IC50 [30]: 0.25 µM
IC50 [31]: 0.25 µM
IC50 [32]: 0.25 µM
IC50 [24]: 0.25 µM

IC50 [33]: 17 µM
IC50 [34]: 38 µM
Compound: CCC[C@H](NS(=O)(=O)c1ccc(C)cc1)[C@]1(c2ccccc2Cl)N=C(SCC)SC1=O

Compound: C/C(=N\N=c1/scc(-c2ccc(Br)cc2)n1-c1ccccc1)C1CC[C@@]2(C)[C@]3(C)CC=C4C[C@@H](O)CC[C@]4(C)[C@@]3(C)CC[C@]12C (stereo partly drawn)
GI50 [12]: 0.6 µM
GI50 [13]: 0.6 µM
GI50 [14]: 0.4 µM

IC50 [33]: 19 µM
IC50 [34]: 41 µM
Compound: CCC[C@H](NS(=O)(=O)c1ccc(C)cc1)[C@]1(c2ccccc2Br)N=C(SCC)SC1=O

inhibition [2]: 3.76%
Compound: O=C(Cc1csc2nc(-c3ccccc3)cn12)Nc1ccc(N2CCOCC2)nc1

IC50 [35]: 0.82 µM
Compound: CCOC(=O)c1nn(-c2ccc(Cl)cc2Cl)/c(=N/NC(=O)c2sc(-c3ccccc3)nc2C)s1

IC50 [36]: > 30 µM
Compound: C/C(=N\Nc1nc(-c2ccc(Cl)cc2)cs1)c1ccccn1

Compound: CC(=O)Nc1nc2ccc(NS(=O)(=O)c3ccc(C4CCCCC4)cc3)cc2s1
IC50 [25]: 36 µM
IC50 [26]: 34 µM
IC50 [27]: 44 µM

IC50 [37]: 11.1 µg/mL (≈ 35.9 µM)
Compound: COc1ccc(/C=N/Nc2nc(-c3ccccc3)cs2)cc1
